Article PMC7933930, “Development of a small molecule that corrects misfolding and increases secretion of Z α1‐antitrypsin” (EMBO Molecular Medicine, 2021)
One block for each molecule: values may come before it.

Legend:
[1] = system: Z α1‐antitrypsin polymers; design: method as in Hidvegi et al, 2010; settings: Z α1‐antitrypsin transgenic mice, 2 weeks of dosing; ref Hidvegi et al, 2010; cited from earlier work
[2] = target: bovine α‐chymotrypsin (bovine)
Z α1‐antitrypsin = Z α1‐antitrypsin (Homo sapiens, UniProt P01009, E366K); assay: TR‐FRET immunoassay (2C1 antibody) of Z α1‐antitrypsin polymerisation, 37°C, 72 h; type: biochemical; design: purified from the plasma of Z α1‐antitrypsin homozygotes; from tissue; host or cells: human plasma of Z α1-antitrypsin homozygotes; settings: 5 nM Z α1‐antitrypsin, 37°C, 72 h; read-out: pIC50, blocking polymerisation in the TR‐FRET immunoassay (converted)
Z α1‐antitrypsin, sequence (P01009 25-418 E366K): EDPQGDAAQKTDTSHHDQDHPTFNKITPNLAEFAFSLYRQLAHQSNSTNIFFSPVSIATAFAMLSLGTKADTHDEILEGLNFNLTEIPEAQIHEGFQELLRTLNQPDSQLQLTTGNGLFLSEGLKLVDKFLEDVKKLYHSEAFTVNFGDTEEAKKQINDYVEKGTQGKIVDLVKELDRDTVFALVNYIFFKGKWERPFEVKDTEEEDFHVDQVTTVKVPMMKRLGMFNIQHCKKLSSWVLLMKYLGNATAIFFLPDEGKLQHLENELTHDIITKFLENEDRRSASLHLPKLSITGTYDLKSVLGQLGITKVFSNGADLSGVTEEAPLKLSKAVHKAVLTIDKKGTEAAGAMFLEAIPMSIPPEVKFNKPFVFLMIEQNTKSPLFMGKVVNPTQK
Source text: Z α1‐antitrypsin is a conformationally dynamic molecule (Lomas et al, 1992; Knaupp et al, 2010) that represents a non‐classical target for drug discovery. A cell‐free assay approach to hit finding was undertaken so as not to miss compounds that bind α1‐antitrypsin and block polymerisation but lack the molecular properties to cross cell membranes. This comprised the following: (i) an encoded library technology (ELT) screen (Goodnow et al, 2017) of a library with a nominal diversity of 2 × 10^12 unique components to identify binders to Z α1‐antitrypsin and (ii) a high‐throughput screen (HTS) of the GSK compound collection (~ 1.7 million compounds) for small molecules that could block polymerisation of Z α1‐antitrypsin. […] In the HTS assay, polymerisation of purified Z α1‐antitrypsin was induced by incubation at 37°C for 72 h in the presence of test compounds, with end‐point quantification of polymers performed using the polymer‐specific monoclonal antibody, 2C1 (Miranda et al, 2010) in a TR‐FRET‐based immunoassay. […]
An antibody‐based time‐resolved fluorescence resonance energy transfer (TR‐FRET) assay was developed to monitor the polymerisation of 5 nM Z α1‐antitrypsin following incubation with varying concentrations of compounds at 37°C for 72 h. This assay used the 2C1 monoclonal antibody (1.25 nM) that is specific to pathological polymers of α1‐antitrypsin (Miranda et al, 2010), a polyclonal antibody (1/320 dilution) that binds to all forms of α1‐antitrypsin (Abcam product 9373), an anti‐mouse IgG (1.5 nM) labelled with fluorescence donor Eu‐W1024 (Perkin Elmer product AD0076) and an anti‐rabbit IgG (14.3 nM labelled with acceptor [APC]). […] The TR‐FRET signal was read on an Envision plate reader (PerkinElmer), by excitation of Europium at 337 nm and detection of emission at 665 and 620 nm.

wild‐type M α1‐antitrypsin, purified from plasma, sequence (P01009 25-418): as the sequence (P01009 25-418 E366K) above, with K342E counted along it

Molecule: NC(=O)N1c2ccccc2C=Cc2ccccc21 [carbamazepine]
effect on liver polymer [1]: profound effects on liver polymer

protease inhibitory activity (stoichiometry of inhibition, residual chymotrypsin activity) after pre‐incubation with 50 µM GSK716 [2]: > 98%
Molecule: wild‐type M α1‐antitrypsin, purified from plasma (from UniProt P01009 25-418) (natural protein)

IC50 (Z α1‐antitrypsin): 316 nM
Molecule: CCCC(NC(=O)c1ccc2cc[nH]c2c1)C(O)c1ccccc1 (stereo not drawn) [GSK425]
